Results: paper doi:10.1101/2021.02.21.432137v1 (biorxiv, 2021)

Assays:
Details in all cases: binder
STK3 (MST2) = target: T1, STK3 (MST2) (Homo sapiens, UniProt Q13188)
T1 sequence (Q13188 1-491): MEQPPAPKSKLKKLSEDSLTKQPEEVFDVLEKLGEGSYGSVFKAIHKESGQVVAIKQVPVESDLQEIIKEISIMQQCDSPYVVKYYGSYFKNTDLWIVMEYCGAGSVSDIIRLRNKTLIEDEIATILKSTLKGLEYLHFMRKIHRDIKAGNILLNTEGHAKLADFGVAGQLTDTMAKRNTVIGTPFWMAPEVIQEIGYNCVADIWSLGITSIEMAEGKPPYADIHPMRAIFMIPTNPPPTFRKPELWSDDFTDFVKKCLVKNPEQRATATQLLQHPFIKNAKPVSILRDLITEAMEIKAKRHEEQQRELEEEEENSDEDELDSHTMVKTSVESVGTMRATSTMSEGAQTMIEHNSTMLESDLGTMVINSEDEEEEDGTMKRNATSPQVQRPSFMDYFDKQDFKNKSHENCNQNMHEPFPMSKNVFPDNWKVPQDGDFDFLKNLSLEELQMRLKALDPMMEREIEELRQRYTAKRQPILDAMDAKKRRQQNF

MAP3K15 = target: T2, MAP3K15 (Homo sapiens, UniProt Q6ZN16)
T2 sequence (Q6ZN16 1-1313): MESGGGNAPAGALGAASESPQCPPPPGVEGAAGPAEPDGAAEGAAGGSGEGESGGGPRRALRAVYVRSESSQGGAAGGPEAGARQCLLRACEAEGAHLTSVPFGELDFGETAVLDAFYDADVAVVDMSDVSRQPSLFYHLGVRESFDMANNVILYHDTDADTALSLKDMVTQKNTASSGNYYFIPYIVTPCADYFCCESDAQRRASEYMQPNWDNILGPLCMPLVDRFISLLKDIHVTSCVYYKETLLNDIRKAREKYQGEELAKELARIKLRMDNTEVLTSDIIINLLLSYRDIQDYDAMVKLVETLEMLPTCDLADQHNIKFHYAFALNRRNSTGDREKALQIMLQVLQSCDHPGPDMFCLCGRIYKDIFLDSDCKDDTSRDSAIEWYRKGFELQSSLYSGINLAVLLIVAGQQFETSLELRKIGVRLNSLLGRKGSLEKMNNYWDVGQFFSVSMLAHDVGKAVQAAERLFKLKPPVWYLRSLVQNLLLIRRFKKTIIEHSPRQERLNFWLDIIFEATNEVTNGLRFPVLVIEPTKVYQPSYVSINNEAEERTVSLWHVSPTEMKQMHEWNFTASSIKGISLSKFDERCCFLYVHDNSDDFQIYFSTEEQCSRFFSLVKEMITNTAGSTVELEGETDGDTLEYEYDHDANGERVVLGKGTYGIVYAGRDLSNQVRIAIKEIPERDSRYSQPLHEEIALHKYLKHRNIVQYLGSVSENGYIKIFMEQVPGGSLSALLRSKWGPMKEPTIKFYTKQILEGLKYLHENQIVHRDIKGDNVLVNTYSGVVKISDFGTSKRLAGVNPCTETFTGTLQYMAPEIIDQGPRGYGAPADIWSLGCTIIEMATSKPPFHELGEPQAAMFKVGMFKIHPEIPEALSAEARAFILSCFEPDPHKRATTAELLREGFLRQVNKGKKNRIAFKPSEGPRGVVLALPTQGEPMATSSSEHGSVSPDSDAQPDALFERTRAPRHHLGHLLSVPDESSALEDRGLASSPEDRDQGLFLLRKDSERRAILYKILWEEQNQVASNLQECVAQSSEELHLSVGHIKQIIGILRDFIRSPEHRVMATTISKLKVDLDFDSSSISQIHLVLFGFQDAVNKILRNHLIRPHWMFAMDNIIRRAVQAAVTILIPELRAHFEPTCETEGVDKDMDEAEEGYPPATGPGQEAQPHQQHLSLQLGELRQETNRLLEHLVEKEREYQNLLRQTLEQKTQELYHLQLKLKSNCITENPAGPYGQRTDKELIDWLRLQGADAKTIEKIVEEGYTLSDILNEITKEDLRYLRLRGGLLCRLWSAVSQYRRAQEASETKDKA

JAK3 = target: T3, JAK3 (Homo sapiens, UniProt P52333)
T3 sequence (P52333 1-1124): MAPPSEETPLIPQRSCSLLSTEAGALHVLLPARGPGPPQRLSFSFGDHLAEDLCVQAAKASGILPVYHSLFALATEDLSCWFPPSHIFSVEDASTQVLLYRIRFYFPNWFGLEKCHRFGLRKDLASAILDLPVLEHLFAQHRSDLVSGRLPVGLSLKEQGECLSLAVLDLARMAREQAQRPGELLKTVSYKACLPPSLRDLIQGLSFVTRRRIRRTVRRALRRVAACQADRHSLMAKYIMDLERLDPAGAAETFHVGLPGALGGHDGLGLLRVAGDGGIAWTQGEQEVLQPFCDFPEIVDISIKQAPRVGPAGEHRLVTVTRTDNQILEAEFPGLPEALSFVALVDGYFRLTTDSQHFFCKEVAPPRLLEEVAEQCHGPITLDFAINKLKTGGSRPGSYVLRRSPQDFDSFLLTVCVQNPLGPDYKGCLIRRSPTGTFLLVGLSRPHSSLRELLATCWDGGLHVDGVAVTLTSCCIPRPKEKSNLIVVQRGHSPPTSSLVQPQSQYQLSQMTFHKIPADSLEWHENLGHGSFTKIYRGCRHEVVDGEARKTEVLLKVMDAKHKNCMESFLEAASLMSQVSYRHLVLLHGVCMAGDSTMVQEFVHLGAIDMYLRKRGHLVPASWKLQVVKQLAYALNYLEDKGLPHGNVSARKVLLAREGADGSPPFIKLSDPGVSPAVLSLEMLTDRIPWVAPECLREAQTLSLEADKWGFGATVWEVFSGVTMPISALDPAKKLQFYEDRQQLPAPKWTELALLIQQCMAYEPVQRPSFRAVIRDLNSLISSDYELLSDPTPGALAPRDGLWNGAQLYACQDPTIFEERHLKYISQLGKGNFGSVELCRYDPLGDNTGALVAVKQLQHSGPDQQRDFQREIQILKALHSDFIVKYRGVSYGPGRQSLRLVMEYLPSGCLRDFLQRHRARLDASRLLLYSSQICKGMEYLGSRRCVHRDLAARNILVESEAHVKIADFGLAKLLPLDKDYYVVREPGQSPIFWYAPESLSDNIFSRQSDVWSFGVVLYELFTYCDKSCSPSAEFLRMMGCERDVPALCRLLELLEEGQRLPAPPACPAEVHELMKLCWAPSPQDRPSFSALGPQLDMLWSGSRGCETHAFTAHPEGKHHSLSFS

TYK2 = TYK2 (Homo sapiens, UniProt P29597)
Chain of TYK2 (P29597 whole entry): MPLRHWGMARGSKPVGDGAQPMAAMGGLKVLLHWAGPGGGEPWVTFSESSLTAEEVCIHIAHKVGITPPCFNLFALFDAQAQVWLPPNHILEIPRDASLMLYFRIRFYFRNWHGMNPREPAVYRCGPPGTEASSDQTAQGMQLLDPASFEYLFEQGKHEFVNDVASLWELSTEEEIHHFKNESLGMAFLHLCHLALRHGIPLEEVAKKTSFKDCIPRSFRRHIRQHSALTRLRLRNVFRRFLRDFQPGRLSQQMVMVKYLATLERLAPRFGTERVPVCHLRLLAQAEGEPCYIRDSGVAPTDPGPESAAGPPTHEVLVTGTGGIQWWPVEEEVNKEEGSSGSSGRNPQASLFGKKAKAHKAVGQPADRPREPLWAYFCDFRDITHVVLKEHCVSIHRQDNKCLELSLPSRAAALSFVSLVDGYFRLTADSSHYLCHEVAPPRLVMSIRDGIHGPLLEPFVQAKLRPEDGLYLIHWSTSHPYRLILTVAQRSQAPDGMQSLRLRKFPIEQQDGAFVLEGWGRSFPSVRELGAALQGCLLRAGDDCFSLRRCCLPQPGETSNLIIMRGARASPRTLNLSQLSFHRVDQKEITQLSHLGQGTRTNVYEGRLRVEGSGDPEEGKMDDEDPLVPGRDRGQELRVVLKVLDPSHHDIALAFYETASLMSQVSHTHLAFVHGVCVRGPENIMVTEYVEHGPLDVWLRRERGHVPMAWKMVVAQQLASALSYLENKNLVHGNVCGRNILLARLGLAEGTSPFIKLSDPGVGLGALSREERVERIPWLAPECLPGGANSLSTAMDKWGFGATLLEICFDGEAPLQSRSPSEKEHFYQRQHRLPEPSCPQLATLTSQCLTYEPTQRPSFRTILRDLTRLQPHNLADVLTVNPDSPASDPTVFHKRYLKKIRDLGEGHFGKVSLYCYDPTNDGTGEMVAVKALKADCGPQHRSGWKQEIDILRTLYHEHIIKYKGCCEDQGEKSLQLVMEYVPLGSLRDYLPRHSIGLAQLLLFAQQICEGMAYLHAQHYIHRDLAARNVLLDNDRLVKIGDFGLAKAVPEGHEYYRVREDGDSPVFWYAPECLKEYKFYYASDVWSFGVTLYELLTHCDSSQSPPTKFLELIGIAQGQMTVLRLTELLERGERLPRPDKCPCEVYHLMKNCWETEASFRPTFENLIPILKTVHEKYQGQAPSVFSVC

C[C@H](NC(=O)c1c[nH]c2ncc(C3CC3)nc12)C(C)(C)C [A1, UNC-BE4-017]
Compound A1 PoC (STK3 (MST2)): 0% | Compound A1 PoC (MAP3K15): 0% | Compound A1 PoC (JAK3): 0.7% | Compound A1 PoC (TYK2): 6.9%
